# Biological target: T1, F508del (Homo sapiens, UniProt P13569, DEL508-508)
# T1 construct: expressed in transfected cells
# Assay: Protocol 1: membrane potential optical assay (FLIPR III, voltage sensing dye), identification of potentiator compounds
# Assay type: cell-based
# Details: Table 3, compounds of Table 1
# Method in brief: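 NIH3T3 F508del cells, 27° C × 24 hrs; compound/DMSO pretreat → redistribution dye load → single forskolin addition with Cl⁻ gradient (gluconate-substituted bath, HEPES pH 7.4). FLIPR III membrane-potential fluorescence read.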
# T1 sequence (P13569 with tags, fused parts or gaps DEL508-508): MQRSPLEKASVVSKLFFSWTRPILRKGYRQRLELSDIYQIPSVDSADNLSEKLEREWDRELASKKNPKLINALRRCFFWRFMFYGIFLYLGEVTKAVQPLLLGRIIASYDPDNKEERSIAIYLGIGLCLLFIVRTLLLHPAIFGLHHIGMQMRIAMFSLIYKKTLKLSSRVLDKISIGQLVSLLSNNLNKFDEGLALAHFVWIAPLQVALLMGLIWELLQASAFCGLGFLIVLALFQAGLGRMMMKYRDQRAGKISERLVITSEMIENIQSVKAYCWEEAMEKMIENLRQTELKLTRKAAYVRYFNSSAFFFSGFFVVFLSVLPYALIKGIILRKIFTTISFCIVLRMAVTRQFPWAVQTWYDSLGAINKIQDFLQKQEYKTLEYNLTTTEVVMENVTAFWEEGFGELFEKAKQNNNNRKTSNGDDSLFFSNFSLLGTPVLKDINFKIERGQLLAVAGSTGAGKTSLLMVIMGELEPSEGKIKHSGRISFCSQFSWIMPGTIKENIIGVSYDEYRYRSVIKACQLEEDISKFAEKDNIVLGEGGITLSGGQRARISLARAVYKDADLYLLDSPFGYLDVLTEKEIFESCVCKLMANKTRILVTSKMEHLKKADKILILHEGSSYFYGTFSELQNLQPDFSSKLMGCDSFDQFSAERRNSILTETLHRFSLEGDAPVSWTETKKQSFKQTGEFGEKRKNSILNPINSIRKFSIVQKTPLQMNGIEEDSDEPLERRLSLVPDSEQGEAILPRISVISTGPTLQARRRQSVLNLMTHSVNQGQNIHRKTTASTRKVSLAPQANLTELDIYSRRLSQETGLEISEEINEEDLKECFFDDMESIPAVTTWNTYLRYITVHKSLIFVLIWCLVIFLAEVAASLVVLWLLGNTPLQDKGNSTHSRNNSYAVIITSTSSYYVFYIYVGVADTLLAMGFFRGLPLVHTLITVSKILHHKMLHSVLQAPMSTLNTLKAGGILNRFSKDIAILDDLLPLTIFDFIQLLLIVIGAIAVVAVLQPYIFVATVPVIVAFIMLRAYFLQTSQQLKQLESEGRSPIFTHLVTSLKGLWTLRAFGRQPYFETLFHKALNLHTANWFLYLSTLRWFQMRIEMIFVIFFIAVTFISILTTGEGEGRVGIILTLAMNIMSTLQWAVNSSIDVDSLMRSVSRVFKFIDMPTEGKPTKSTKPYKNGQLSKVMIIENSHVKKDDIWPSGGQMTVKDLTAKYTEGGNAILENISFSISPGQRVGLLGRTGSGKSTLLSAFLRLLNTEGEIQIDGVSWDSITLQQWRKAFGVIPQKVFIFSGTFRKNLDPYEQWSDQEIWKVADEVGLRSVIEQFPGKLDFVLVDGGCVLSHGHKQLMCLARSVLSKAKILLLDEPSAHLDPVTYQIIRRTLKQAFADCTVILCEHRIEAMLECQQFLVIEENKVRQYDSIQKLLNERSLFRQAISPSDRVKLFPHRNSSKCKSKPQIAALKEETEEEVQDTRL
row,EC30,SMILES
1,++ (“++” means between 3 uM and 10 uM),"Cc1cc(C)c(Oc2nc(-c3ccc(CN)cc3)ccc2C(=O)NS(=O)(=O)c2cccc(N)n2)c(C)c1 [Compound 1228, 6-[4-(aminomethyl)phenyl]-N-[(6-amino-2-pyridyl)sulfonyl]-2-(2,4,6-trimethylphenoxy)pyridine-3-carboxamide]"
2,++ (“++” means between 3 uM and 10 uM),"CC(C)Oc1ccc(-c2ccc(C(=O)NS(=O)(=O)c3cccc(N)n3)c(N3CCC[C@@H]3C(F)(F)F)n2)cn1 [Compound 1230, N-[(6-amino-2-pyridyl)sulfonyl]-6-(6-isopropoxy-3-pyridyl)-2-[(2R)-2-(trifluoromethyl)pyrrolidin-1-yl]pyridine-3-carboxamide]"
3,+++ (“+++” means <3 uM),"Cc1ccc(-c2nc3c(cc2C(=O)NS(=O)(=O)c2cccc(N)c2)CCCC3(C)C)cc1 [Compound 1231, (3-aminophenyl)sulfonyl-[8,8-dimethyl-2-(p-tolyl)-6,7-dihydro-5H-quinoline-3-carbonyl]azanide]"
4,+++ (“+++” means <3 uM),"Cc1cc(C)c(Oc2nc(C(C)C)ccc2C(=O)NS(=O)(=O)c2cccc(N)n2)c(C)c1 [Compound 1232, N-[(6-amino-2-pyridyl)sulfonyl]-6-isopropyl-2-(2,4,6-trimethylphenoxy)pyridine-3-carboxamide]"
5,++ (“++” means between 3 uM and 10 uM),"Cc1cc(C)c(Oc2ncc(Cc3ccccc3)cc2C(=O)NS(=O)(=O)c2cccc(N)n2)c(C)c1 [Compound 1233, N-[(6-amino-2-pyridyl)sulfonyl]-5-benzyl-2-(2,4,6-trimethylphenoxy)pyridine-3-carboxamide]"
6,++ (“++” means between 3 uM and 10 uM),"COc1cccc(-c2ccc(C(=O)NS(=O)(=O)c3ccn[nH]3)c(N3[C@H](C)CC[C@@H]3C)n2)n1 [Compound 1236, 2-[(2S,5R)-2,5-dimethylpyrrolidin-1-yl]-6-(6-methoxy-2-pyridyl)-N-(1H-pyrazol-5-ylsulfonyl)pyridine-3-carboxamide]"
7,++ (“++” means between 3 uM and 10 uM),"Cc1cc(C)c(CN2Cc3ccccc3C2(C)C(=O)NS(=O)(=O)c2ccc[nH]c2=O)c(C)c1 (centres unmarked) [Compound 1237, 1-methyl-N-[(2-oxo-1H-pyridin-3-yl)sulfonyl]-2-[(2,4,6-trimethylphenyl)methyl]isoindoline-1-carboxamide]"
8,+++ (“+++” means <3 uM),"Cc1ccc(Oc2nc3c(cc2C(=O)NS(=O)(=O)c2nccnc2N)CCCC3(C)C)c(C)c1 [Compound 1239, N-(3-aminopyrazin-2-yl)sulfonyl-2-(2,4-dimethylphenoxy)-8,8-dimethyl-6,7-dihydro-5H-quinoline-3-carboxamide]"
9,+++ (“+++” means <3 uM),"CC(C)Oc1ccc(-c2ccc(C(=O)NS(=O)(=O)c3cccnc3N)c(N3C[C@H](C)CC3(C)C)n2)cn1 [Compound 1240, N-[(2-amino-3-pyridyl)sulfonyl]-6-(6-isopropoxy-3-pyridyl)-2-[(4R)-2,2,4-trimethylpyrrolidin-1-yl]pyridine-3-carboxamide]"
10,+++ (“+++” means <3 uM),"CC1CN(c2nc(-c3ccnn3C(C)C)ccc2C(=O)NS(=O)(=O)c2cccc(N)n2)C(C)(C)C1 (centres unmarked) [Compound 1242, N-[(6-amino-2-pyridyl)sulfonyl]-6-(2-isopropylpyrazol-3-yl)-2-(2,2,4-trimethylpyrrolidin-1-yl)pyridine-3-carboxamide]"
11,+++ (“+++” means <3 uM),"Cc1cccc(C)c1Oc1nc(C(C)(C)C)ccc1C(=O)NS(=O)(=O)c1cccc(N)n1 [Compound 1243, N-[(6-amino-2-pyridyl)sulfonyl]-6-tert-butyl-2-(2,6-dimethylphenoxy)pyridine-3-carboxamide]"
12,+++ (“+++” means <3 uM),"Cc1cc(C)c(Oc2nc(-c3cccc(F)c3F)ccc2C(=O)NS(=O)(=O)c2cccc(N)n2)c(C)c1 [Compound 1244, N-[(6-amino-2-pyridyl)sulfonyl]-6-(2,3-difluorophenyl)-2-(2,4,6-trimethylphenoxy)pyridine-3-carboxamide]"
13,+++ (“+++” means <3 uM),"Cc1ccc(Oc2nc3c(cc2C(=O)NS(=O)(=O)c2cc[nH]n2)CCCC3(C)C)c(C)c1 [Compound 1246, 2-(2,4-dimethylphenoxy)-8,8-dimethyl-N-(1H-pyrazol-3-ylsulfonyl)-6,7-dihydro-5H-quinoline-3-carboxamide]"
14,+++ (“+++” means <3 uM),"CC1CN(c2nc(-c3ccc(OC(C)C)nc3)ccc2C(=O)NS(=O)(=O)c2cccc(N)n2)C(C)(C)C1 (centres unmarked) [Compound 1247, N-[(6-amino-2-pyridyl)sulfonyl]-6-(6-isopropoxy-3-pyridyl)-2-(2,2,4-trimethylpyrrolidin-1-yl)pyridine-3-carboxamide]"
15,+++ (“+++” means <3 uM),"CC(C)Oc1ccc(-c2ccc(C(=O)NS(=O)(=O)c3cccc(N)n3)c(N3CCC[C@H]3C(F)(F)F)n2)cn1 [Compound 1248, N-[(6-amino-2-pyridyl)sulfonyl]-6-(6-isopropoxy-3-pyridyl)-2-[(2S)-2-(trifluoromethyl)pyrrolidin-1-yl]pyridine-3-carboxamide]"
16,+++ (“+++” means <3 uM),"COc1ncc(-c2ccc(C(=O)NS(=O)(=O)c3nccnc3N)c(Oc3c(C)cc(C)cc3C)n2)cc1C [Compound 1249, N-(3-aminopyrazin-2-yl)sulfonyl-6-(6-methoxy-5-methyl-3-pyridyl)-2-(2,4,6-trimethylphenoxy)pyridine-3-carboxamide]"
17,+++ (“+++” means <3 uM),"Cc1cc(C)c(Oc2nc(C)ccc2C(=O)NS(=O)(=O)c2cccc(N(C)C)n2)c(C)c1 [Compound 1250, N-[[6-(dimethylamino)-2-pyridyl]sulfonyl]-6-methyl-2-(2,4,6-trimethylphenoxy)pyridine-3-carboxamide]"

# The next lines start with the compound.
row,SMILES,EC30
1,"Cc1cc(C)c(Oc2nc(-c3ccccc3Cl)ccc2C(=O)NS(=O)(=O)c2cccc(N)n2)c(C)c1 [Compound 1221, N-[(6-amino-2-pyridyl)sulfonyl]-6-(2-chlorophenyl)-2-(2,4,6-trimethylphenoxy)pyridine-3-carboxamide]",+++ (“+++” means <3 uM)
2,"CCC1CCC(C)N1c1nc(-c2cc(F)cc(OCC(C)C)c2)ccc1C(=O)NS(=O)(=O)c1cccc(N)n1 (centres unmarked) [Compound 1222, N-[(6-amino-2-pyridyl)sulfonyl]-2-(2-ethyl-5-methyl-pyrrolidin-1-yl)-6-(3-fluoro-5-isobutoxy-phenyl)pyridine-3-carboxamide]",+++ (“+++” means <3 uM)
3,"Cc1cc(C)c(Oc2nc3c(cc2C(=O)NS(=O)(=O)c2nccnc2N)CCCC3(C)C)c(C)c1 [Compound 1223, N-(3-aminopyrazin-2-yl)sulfonyl-8,8-dimethyl-2-(2,4,6-trimethylphenoxy)-6,7-dihydro-5H-quinoline-3-carboxamide]",+++ (“+++” means <3 uM)
4,"CC(C)COc1cncc(-c2ccc(C(=O)NS(=O)(=O)c3cccc(N)n3)c(N3[C@H](C)CC[C@@H]3C)n2)c1 [Compound 1224, N-[(6-amino-2-pyridyl)sulfonyl]-2-[(2S,5R)-2,5-dimethylpyrrolidin-1-yl]-6-(5-isobutoxy-3-pyridyl)pyridine-3-carboxamide]",++ (“++” means between 3 uM and 10 uM)
5,"COc1ccc(OC)c(-c2ccc(C(=O)NS(=O)(=O)c3cccc(N)n3)c(Oc3c(C)cc(C)cc3C)n2)c1 [Compound 1225, N-[(6-amino-2-pyridyl)sulfonyl]-6-(2,5-dimethoxyphenyl)-2-(2,4,6-trimethylphenoxy)pyridine-3-carboxamide]",+++ (“+++” means <3 uM)
6,"Cc1cc(C)c(Oc2nc(C3(C)CC3)ccc2C(=O)NS(=O)(=O)c2ccc[nH]c2=O)c(C)c1 [Compound 1226, 6-(1-methylcyclopropyl)-N-[(2-oxo-1H-pyridin-3-yl)sulfonyl]-2-(2,4,6-trimethylphenoxy)pyridine-3-carboxamide]",+++ (“+++” means <3 uM)
7,"CC(C)COc1cc(F)cc(-c2ccc(C(=O)NS(=O)(=O)c3cccc(N)n3)c(OC3CC4CCC3C4)n2)c1 (centres unmarked) [Compound 1227, N-[(6-amino-2-pyridyl)sulfonyl]-6-(3-fluoro-5-isobutoxy-phenyl)-2-norbornan-2-yloxy-pyridine-3-carboxamide]",+++ (“+++” means <3 uM)
8,"CC(C)COc1cc(F)cc(-c2ccc(C(=O)NS(=O)(=O)c3cccc(N)n3)c(OCC3CC3)n2)c1 [Compound 1229, N-[(6-amino-2-pyridyl)sulfonyl]-2-(cyclopropylmethoxy)-6-(3-fluoro-5-isobutoxy-phenyl)pyridine-3-carboxamide]",+++ (“+++” means <3 uM)
9,"CC(C)COc1cc(-c2ccc(C(=O)NS(=O)(=O)c3ccn[nH]3)c(N3[C@H](C)CC[C@@H]3C)n2)ccc1Cl [Compound 1234, 6-(4-chloro-3-isobutoxy-phenyl)-2-[(2S,5R)-2,5-dimethylpyrrolidin-1-yl]-N-(1H-pyrazol-5-ylsulfonyl)pyridine-3-carboxamide]",+++ (“+++” means <3 uM)
10,"CC(C)COc1cc(F)cc(-c2ccc(C(=O)NS(=O)(=O)c3cccc(N)n3)c(OC(C)C3CCC3)n2)c1 (centres unmarked) [Compound 1238, N-[(6-amino-2-pyridyl)sulfonyl]-2-(1-cyclobutylethoxy)-6-(3-fluoro-5-isobutoxy-phenyl)pyridine-3-carboxamide]",+++ (“+++” means <3 uM)
11,"CC(C)COc1cc(F)cc(-c2ccc(C(=O)NS(=O)(=O)c3cccc(N)n3)c(N3[C@@H](C)CCC3(C)C)n2)c1 [Compound 1241, N-[(6-amino-2-pyridyl)sulfonyl]-6-(3-fluoro-5-isobutoxy-phenyl)-2-[(5S)-2,2,5-trimethylpyrrolidin-1-yl]pyridine-3-carboxamide]",+++ (“+++” means <3 uM)
12,"COC1CCN(c2nc(-c3cc(F)cc(OCC(C)C)c3)ccc2C(=O)NS(=O)(=O)c2ccn[nH]2)CC1 [Compound 1245, 6-(3-fluoro-5-isobutoxy-phenyl)-2-(4-methoxy-1-piperidyl)-N-(1H-pyrazol-5-ylsulfonyl)pyridine-3-carboxamide]",+ (“+” means greater than 10 uM)

# Source: patent publication US10758534B2 (Vertex Pharmaceuticals Incorporated, priority 2014, dated 2020)
